ChEMBL document CHEMBL1138103, “Synthesis and antibacterial activity of new fluoroquinolones containing a substituted N-(phenethyl)piperazine moiety” (2006)
Converted amounts (≈) assume the structure as drawn.

Experiments:
Assay type in all cases: functional
[1] = system: Staphylococcus aureus; test: microbe, parasite or virus in culture; details: ATCC 6538P
Description: Antibacterial activity against Staphylococcus aureus ATCC 6538p by agar-dilution method

[2] = system: Bacillus subtilis; test: microbe, parasite or virus in culture; details: ATCC 6633
Description: Antibacterial activity against Bacillus subtilis ATCC 6633 by agar-dilution method

[3] = system: Staphylococcus epidermidis; test: microbe, parasite or virus in culture; details: ATCC 12228
Description: Antibacterial activity against Staphylococcus epidermidis ATCC 12228 by agar-dilution method

[4] = system: Escherichia coli; test: microbe, parasite or virus in culture; details: ATCC 8739
Description: Antibacterial activity against Escherichia coli ATCC 8739 by agar-dilution method

[5] = system: Klebsiella pneumoniae; test: microbe, parasite or virus in culture; details: ATCC 10031
Description: Antibacterial activity against Klebsiella pneumoniae ATCC 10031 by agar-dilution method

[6] = system: Pseudomonas aeruginosa; test: microbe, parasite or virus in culture; details: ATCC 9027
Description: Antibacterial activity against Pseudomonas aeruginosa ATCC 9027 by agar-dilution method

[7] = system: Staphylococcus aureus; test: Antibacterial activity against methicillin-resistant Staphylococcus aureus 1 by agar-dilution method
[8] = system: Staphylococcus aureus; test: Antibacterial activity against methicillin-resistant Staphylococcus aureus 2 by agar-dilution method

MIC [1] | MIC [2] | MIC [3] | MIC [4] | MIC [5] | MIC [6] | SMILES | MIC [7] | MIC [8]
12.5 µg/mL (≈ 25.7 µM) | 6.25 µg/mL (≈ 12.9 µM) | 6.25 µg/mL (≈ 12.9 µM) | 6.25 µg/mL (≈ 12.9 µM) | 1.56 µg/mL (≈ 3.21 µM) | 100 µg/mL (≈ 206 µM) | CCn1cc(C(=O)O)c(=O)c2cc(F)c(N3CCN(C/C(=N\OC)c4ccc(F)cc4)CC3)nc21 | – | –
25 µg/mL (≈ 53.5 µM) | 12.5 µg/mL (≈ 26.7 µM) | 25 µg/mL (≈ 53.5 µM) | 12.5 µg/mL (≈ 26.7 µM) | 12.5 µg/mL (≈ 26.7 µM) | > 100 µg/mL | CCn1cc(C(=O)O)c(=O)c2cc(F)c(N3CCN(C/C(=N\OC)c4ccccc4)CC3)nc21 | – | –
25 µg/mL (≈ 46.6 µM) | 12.5 µg/mL (≈ 23.3 µM) | 25 µg/mL (≈ 46.6 µM) | 12.5 µg/mL (≈ 23.3 µM) | 6.25 µg/mL (≈ 11.7 µM) | 50 µg/mL (≈ 93.2 µM) | CCn1cc(C(=O)O)c(=O)c2cc(F)c(N3CCN(C/C(=N\OC)c4ccc(Cl)cc4Cl)CC3)nc21 | – | –
25 µg/mL (≈ 53.6 µM) | 6.25 µg/mL (≈ 13.4 µM) | 25 µg/mL (≈ 53.6 µM) | 12.5 µg/mL (≈ 26.8 µM) | 12.5 µg/mL (≈ 26.8 µM) | > 100 µg/mL | CCn1cc(C(=O)O)c(=O)c2cc(F)c(N3CCN(C/C(=N\OC)c4ccccc4)CC3)cc21 | – | –
25 µg/mL (≈ 49.7 µM) | 1.56 µg/mL (≈ 3.1 µM) | 25 µg/mL (≈ 49.7 µM) | 50 µg/mL (≈ 99.3 µM) | 25 µg/mL (≈ 49.7 µM) | > 100 µg/mL | CCn1cc(C(=O)O)c(=O)c2cc(F)c(N3CCN(C/C(=N\OC)c4ccc(F)cc4F)CC3)nc21 | – | –
6.25 µg/mL (≈ 12.9 µM) | 3.13 µg/mL (≈ 6.46 µM) | 1.56 µg/mL (≈ 3.22 µM) | 3.13 µg/mL (≈ 6.46 µM) | 0.78 µg/mL (≈ 1.61 µM) | 100 µg/mL (≈ 206 µM) | CCn1cc(C(=O)O)c(=O)c2cc(F)c(N3CCN(C/C(=N\OC)c4ccc(F)cc4)CC3)cc21 | – | –
12.5 µg/mL (≈ 23.3 µM) | 12.5 µg/mL (≈ 23.3 µM) | 12.5 µg/mL (≈ 23.3 µM) | 12.5 µg/mL (≈ 23.3 µM) | 6.25 µg/mL (≈ 11.7 µM) | > 100 µg/mL | CCn1cc(C(=O)O)c(=O)c2cc(F)c(N3CCN(C/C(=N\OC)c4ccc(Cl)cc4Cl)CC3)cc21 | – | –
12.5 µg/mL (≈ 26.1 µM) | 6.25 µg/mL (≈ 13.1 µM) | 12.5 µg/mL (≈ 26.1 µM) | 6.25 µg/mL (≈ 13.1 µM) | 3.13 µg/mL (≈ 6.54 µM) | 100 µg/mL (≈ 209 µM) | CO/N=C(\CN1CCN(c2cc3c(cc2F)c(=O)c(C(=O)O)cn3C2CC2)CC1)c1ccccc1 | – | –

Continued, molecule first:

SMILES | MIC [1] | MIC [2] | MIC [3] | MIC [4] | MIC [5] | MIC [6] | MIC [7] | MIC [8]
O=C(CN1CCN(c2cc3c(cc2F)c(=O)c(C(=O)O)cn3C2CC2)CC1)c1ccc(Cl)cc1 | 0.39 µg/mL (≈ 0.806 µM) | 0.049 µg/mL (≈ 0.101 µM) | 0.195 µg/mL (≈ 0.403 µM) | 0.025 µg/mL (≈ 0.0517 µM) | 0.013 µg/mL (≈ 0.0269 µM) | 1.56 µg/mL (≈ 3.22 µM) | 0.39 µg/mL (≈ 0.806 µM) | 0.39 µg/mL (≈ 0.806 µM)
O=C(CN1CCN(c2cc3c(cc2F)c(=O)c(C(=O)O)cn3C2CC2)CC1)c1ccccc1Cl | 0.39 µg/mL (≈ 0.806 µM) | 0.049 µg/mL (≈ 0.101 µM) | 0.195 µg/mL (≈ 0.403 µM) | 0.098 µg/mL (≈ 0.203 µM) | 0.025 µg/mL (≈ 0.0517 µM) | 6.25 µg/mL (≈ 12.9 µM) | 0.39 µg/mL (≈ 0.806 µM) | 0.39 µg/mL (≈ 0.806 µM)
CCn1cc(C(=O)O)c(=O)c2cc(F)c(N3CCN(C/C(=N\OC)c4ccc(F)cc4F)CC3)cc21 | 12.5 µg/mL (≈ 24.9 µM) | 1.56 µg/mL (≈ 3.1 µM) | 12.5 µg/mL (≈ 24.9 µM) | 25 µg/mL (≈ 49.8 µM) | 12.5 µg/mL (≈ 24.9 µM) | > 100 µg/mL | – | –
O=C(O)c1cn(C2CC2)c2cc(N3CCN(C/C(=N\O)c4ccc(Cl)cc4)CC3)c(F)cc2c1=O | 0.39 µg/mL (≈ 0.782 µM) | 0.78 µg/mL (≈ 1.56 µM) | 0.195 µg/mL (≈ 0.391 µM) | 0.78 µg/mL (≈ 1.56 µM) | 0.049 µg/mL (≈ 0.0982 µM) | 100 µg/mL (≈ 200 µM) | 0.195 µg/mL (≈ 0.391 µM) | 0.098 µg/mL (≈ 0.196 µM)
CO/N=C(\CN1CCN(c2cc3c(cc2F)c(=O)c(C(=O)O)cn3C2CC2)CC1)c1ccc(Cl)cc1Cl | 0.39 µg/mL (≈ 0.712 µM) | 0.025 µg/mL (≈ 0.0457 µM) | 0.39 µg/mL (≈ 0.712 µM) | 0.025 µg/mL (≈ 0.0457 µM) | 0.012 µg/mL (≈ 0.0219 µM) | 1.56 µg/mL (≈ 2.85 µM) | 0.39 µg/mL (≈ 0.712 µM) | 0.39 µg/mL (≈ 0.712 µM)
CO/N=C(\CN1CCN(c2cc3c(cc2F)c(=O)c(C(=O)O)cn3C2CC2)CC1)c1ccc(F)cc1F | 6.25 µg/mL (≈ 12.1 µM) | 0.78 µg/mL (≈ 1.52 µM) | 6.25 µg/mL (≈ 12.1 µM) | 1.56 µg/mL (≈ 3.03 µM) | 0.78 µg/mL (≈ 1.52 µM) | 12.5 µg/mL (≈ 24.3 µM) | – | –
CO/N=C(\CN1CCN(c2cc3c(cc2F)c(=O)c(C(=O)O)cn3C2CC2)CC1)c1ccc(F)cc1 | 6.25 µg/mL (≈ 12.6 µM) | 6.25 µg/mL (≈ 12.6 µM) | 6.25 µg/mL (≈ 12.6 µM) | 3.13 µg/mL (≈ 6.3 µM) | 3.13 µg/mL (≈ 6.3 µM) | 50 µg/mL (≈ 101 µM) | – | –
CO/N=C(\CN1CCN(c2cc3c(cc2F)c(=O)c(C(=O)O)cn3C2CC2)CC1)c1ccccc1Cl | 0.39 µg/mL (≈ 0.76 µM) | 0.049 µg/mL (≈ 0.0955 µM) | 0.195 µg/mL (≈ 0.38 µM) | 0.025 µg/mL (≈ 0.0487 µM) | 0.013 µg/mL (≈ 0.0253 µM) | 6.25 µg/mL (≈ 12.2 µM) | 0.39 µg/mL (≈ 0.76 µM) | 0.39 µg/mL (≈ 0.76 µM)
CO/N=C(\CN1CCN(c2cc3c(cc2F)c(=O)c(C(=O)O)cn3C2CC2)CC1)c1ccc(Cl)cc1 | 0.78 µg/mL (≈ 1.52 µM) | 1.56 µg/mL (≈ 3.04 µM) | 0.39 µg/mL (≈ 0.76 µM) | 1.56 µg/mL (≈ 3.04 µM) | 0.78 µg/mL (≈ 1.52 µM) | > 100 µg/mL | 0.39 µg/mL (≈ 0.76 µM) | 0.39 µg/mL (≈ 0.76 µM)
O=C(O)c1cn(C2CC2)c2cc(N3CCN(C/C(=N\O)c4ccccc4Cl)CC3)c(F)cc2c1=O | 0.39 µg/mL (≈ 0.782 µM) | 0.78 µg/mL (≈ 1.56 µM) | 0.195 µg/mL (≈ 0.391 µM) | 0.78 µg/mL (≈ 1.56 µM) | 0.025 µg/mL (≈ 0.0501 µM) | 25 µg/mL (≈ 50.1 µM) | 0.39 µg/mL (≈ 0.782 µM) | 0.39 µg/mL (≈ 0.782 µM)
O=C(O)c1cn(C2CC2)c2cc(N3CCNCC3)c(F)cc2c1=O [CIPROFLOXACIN] | 0.39 µg/mL (≈ 1.18 µM) | 0.025 µg/mL (≈ 0.0754 µM) | 0.39 µg/mL (≈ 1.18 µM) | 0.025 µg/mL (≈ 0.0754 µM) | 0.025 µg/mL (≈ 0.0754 µM) | 0.78 µg/mL (≈ 2.35 µM) | 0.39 µg/mL (≈ 1.18 µM) | 0.39 µg/mL (≈ 1.18 µM)
CCn1cc(C(=O)O)c(=O)c2cc(F)c(N3CCNCC3)nc21 [ENOXACIN] | 1.56 µg/mL (≈ 4.87 µM) | 0.098 µg/mL (≈ 0.306 µM) | 0.78 µg/mL (≈ 2.44 µM) | 0.098 µg/mL (≈ 0.306 µM) | 0.098 µg/mL (≈ 0.306 µM) | 6.25 µg/mL (≈ 19.5 µM) | – | –
CCn1cc(C(=O)O)c(=O)c2cc(F)c(N3CCNCC3)cc21 [NORFLOXACIN] | 0.78 µg/mL (≈ 2.44 µM) | 0.049 µg/mL (≈ 0.153 µM) | 0.78 µg/mL (≈ 2.44 µM) | 0.049 µg/mL (≈ 0.153 µM) | 0.049 µg/mL (≈ 0.153 µM) | 3.13 µg/mL (≈ 9.8 µM) | 0.78 µg/mL (≈ 2.44 µM) | 0.78 µg/mL (≈ 2.44 µM)
